The structures appear in SMILES notation. pIC50: −log10 of the molar value.

The target in assay [1] is human IL-17A / human IL-17RA (Homo sapiens (Human), UniProt Q16552). Description: Human IL-17A biochemical assay (HTRF, blocking of IL-17A binding to IL-17RA). To be noted: 0.4 nM IL-17A, 0.3 nM IL-17RA, max compound concentration 10 uM. Summed up: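 HTRF competition: 0.4 nM recombinant human IL-17A pre-incubated 3 h at room temperature with compound (top 10 uM, 2.7-fold, 10 points) in HEPES pH 7.5 buffer, then 0.3 nM IL-17RA added for 1 h, then anti-6His-Tb/anti-human IgG-XL665 detection for 1 h.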
Sequence of human IL-17A / human IL-17RA (Q16552 24-155): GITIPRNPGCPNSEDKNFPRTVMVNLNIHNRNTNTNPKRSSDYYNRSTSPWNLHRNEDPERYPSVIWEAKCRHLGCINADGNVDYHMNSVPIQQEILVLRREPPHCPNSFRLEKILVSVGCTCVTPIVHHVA
In general terms: TR-FRET usually uses a lanthanide donor and a delayed reading to cut background.

In assay [2] the test system is IL-17-induced GROα secretion from HT-29 cells. The experiment in a line: GROα release assay in human colorectal adenocarcinoma epithelial cell (HT-29, ELISA). The class given is cell-based. To be noted: Homo sapiens, HT-29, 48 h, 10 ng/mL IL-17A, highest concentration 10 μM, read-out: Cellular assay HT29 cell/CXCL1 IC50. Put shortly:
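HT-29 cells were exposed 48 h at 37°C to IL-17A (final 10 ng/mL) preincubated 15 min with compound (4-fold dilutions, top 10 μM). Secreted GROα was quantified by ELISA against a standard curve, and IC50 obtained by four-parameter fitting.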

For `Cc1ccc(F)cc1NC(=O)C1(N2CC3(CC3)CNC2=O)Cc2ccc(NC(=O)[C@@H](NC(=O)c3nonc3C)C3CCC(F)(F)CC3)cc2C1` (stereo partly drawn) [Example 219, N-((1S)-1-(4,4-difluorocyclohexyl)-2-((2-((5-fluoro-2-methylphenyl)carbamoyl)-2-(6-oxo-5,7-diazaspiro[2.5]octan-5-yl)-2,3-dihydro-1H-inden-5-yl)amino)-2-oxoethyl)-4-methyl-1,2,5-oxadiazole-3-carboxamide], the figures for the pIC50 in assay [1] and in assay [2] were 6.97 and 6.53, respectively.
Take `Cc1nonc1C(=O)N[C@H](C(=O)Nc1ccc2c(c1)CC(C(=O)Nc1cc(F)ccc1Cl)(N1C[C@@H](C(C)C)NC1=O)C2)C(C1CC1)C1CC1` (stereo partly drawn) [Example 278, N-((2S)-1-((2-((2-chloro-5-fluorophenyl)carbamoyl)-2-((R)-4-isopropyl-2-oxoimidazolidin-1-yl)-2,3-dihydro-1H-inden-5-yl)amino)-3,3-dicyclopropyl-1-oxopropan-2-yl)-4-methyl-1,2,5-oxadiazole-3-carboxamide]: the results for the pIC50 in assay [1] and in assay [2] were 6.48 and 6.91, respectively.
On the same counts, the results for `Cc1nonc1C(=O)N[C@H](C(=O)Nc1ccc2c(c1)CC(c1nc(-c3ccccc3)c[nH]1)(N1CC3(CC3)CNC1=O)C2)C1CCC(F)(F)CC1` (stereo partly drawn) [Example 205, N-((1S)-1-(4,4-difluorocyclohexyl)-2-oxo-2-((2-(6-oxo-5,7-diazaspiro[2.5]octan-5-yl)-2-(4-phenyl-1H-imidazol-2-yl)-2,3-dihydro-1H-inden-5-yl)amino)ethyl)-4-methyl-1,2,5-oxadiazole-3-carboxamide] are 6.61 and 6.71.
For the compound `Cc1nonc1C(=O)N[C@H](C(=O)Nc1ccc2c(c1)CC(C(=O)Nc1ccccc1)(N1C[C@@H](C(C)C)NC1=O)C2)C1CCC(F)(F)CC1` (stereo partly drawn) [Example 242, N-((1S)-1-(4,4-difluorocyclohexyl)-2-((2-((R)-4-isopropyl-2-oxoimidazolidin-1-yl)-2-(phenylcarbamoyl)-2,3-dihydro-1H-inden-5-yl)amino)-2-oxoethyl)-4-methyl-1,2,5-oxadiazole-3-carboxamide], the figures for the pIC50 in assay [1] and in assay [2] were 6.60 and 6.19, respectively.
`CNC(=O)C1(N2CC3(CCC3)CNC2=O)Cc2ccc(NC(=O)[C@@H](NC(=O)c3ccnn3C)C3CCCCC3)cc2C1` (stereo partly drawn) [Example 108, N-((1S)-1-cyclohexyl-2-((2-(methylcarbamoyl)-2-(7-oxo-6,8-diazaspiro[3.5]nonan-6-yl)-2,3-dihydro-1H-inden-5-yl)amino)-2-oxoethyl)-1-methyl-1H-pyrazole-5-carboxamide]: the results for the pIC50 in assay [1] and in assay [2] were 8.24 and 7.37, respectively.
Turning to `CNC(=O)C1(N2CC3(CC3)CNC2=O)Cc2ccc(NC(=O)[C@@H](NC(=O)c3cc(C#N)cn3C)C3CCCCC3)cc2C1` (stereo partly drawn) [Example 130, 4-cyano-N-((1S)-1-cyclohexyl-2-((2-(methylcarbamoyl)-2-(6-oxo-5,7-diazaspiro[2.5]octan-5-yl)-2,3-dihydro-1H-inden-5-yl)amino)-2-oxoethyl)-1-methyl-1H-pyrrole-2-carboxamide], the values for the pIC50 in assay [1] and in assay [2] were 7.72 and 7.22, respectively.
On the same counts, the results for `Cc1nonc1C(=O)N[C@H](C(=O)Nc1ccc2c(c1)CC(c1nc3cccc(F)c3[nH]1)(N1CC3(CC3)CNC1=O)C2)C1CCC(F)(F)CC1` (stereo partly drawn) [Example 187, N-((1S)-1-(4,4-difluorocyclohexyl)-2-((2-(7-fluoro-1H-benzo[d]imidazol-2-yl)-2-(6-oxo-5,7-diazaspiro[2.5]octan-5-yl)-2,3-dihydro-1H-inden-5-yl)amino)-2-oxoethyl)-4-methyl-1,2,5-oxadiazole-3-carboxamide] are 6.60 and 6.61.
With `Cc1nonc1C(=O)N[C@H](C(=O)Nc1ccc2c(c1)CC(C(=O)Nc1ccccc1F)(N1C[C@@H](C(C)C)NC1=O)C2)C(C1CC1)C1CC1` (stereo partly drawn) [Example 262, N-((2S)-1,1-dicyclopropyl-3-((2-((2-fluorophenyl)carbamoyl)-2-((R)-4-isopropyl-2-oxoimidazolidin-1-yl)-2,3-dihydro-1H-inden-5-yl)amino)-3-oxopropan-2-yl)-4-methyl-1,2,5-oxadiazole-3-carboxamide], the pIC50 in assay [1] is 7.00; in assay [2], 6.35.
In the same order, the values of `CC#CCC1CN(C2(C(=O)NC)Cc3ccc(NC(=O)[C@@H](NC(=O)c4ccnn4C)C4CCCCC4)cc3C2)C(=O)N1` (stereo partly drawn) [Example 106, N-((1S)-2-((2-(4-(but-2-yn-1-yl)-2-oxoimidazolidin-1-yl)-2-(methylcarbamoyl)-2,3-dihydro-1H-inden-5-yl)amino)-1-cyclohexyl-2-oxoethyl)-1-methyl-1H-pyrazole-5-carboxamide] are 7.32 and 6.69.
Consider `CNC(=O)C1(N2C[C@@H](C(C)C)NC2=O)Cc2ccc(NC(=O)C(NC(=O)c3ccnn3C)C3CCc4cc(Cl)ccc4C3)cc2C1` (stereo partly drawn) [Example 186, N-(1-(6-chloro-1,2,3,4-tetrahydronaphthalen-2-yl)-2-((2-((R)-4-isopropyl-2-oxoimidazolidin-1-yl)-2-(methylcarbamoyl)-2,3-dihydro-1H-inden-5-yl)amino)-2-oxoethyl)-1-methyl-1H-pyrazole-5-carboxamide], for which the pIC50 is 8.20 in assay [1] and 7.82 in assay [2].
`CCC1CCC(C(NC(=O)c2ccnn2C)C(=O)Nc2ccc3c(c2)CC(C(=O)NC)(N2CC4(CCC4)CNC2=O)C3)CC1` (stereo not drawn) [Example 125, N-(1-(4-ethylcyclohexyl)-2-((2-(methylcarbamoyl)-2-(7-oxo-6,8-diazaspiro[3.5]nonan-6-yl)-2,3-dihydro-1H-inden-5-yl)amino)-2-oxoethyl)-1-methyl-1H-pyrazole-5-carboxamide]: the results for the pIC50 in assay [1] and in assay [2] were 8.25 and 7.59, respectively.
In the same order, the values of `Cc1nonc1C(=O)N[C@H](C(=O)Nc1ccc2c(c1)CC(C(=O)NC1(c3cc(F)ccc3F)CC1)(N1CC3(CC3)CNC1=O)C2)C1CCC(F)(F)CC1` (stereo partly drawn) [Example 233, N-((1S)-1-(4,4-difluorocyclohexyl)-2-((2-((1-(2,5-difluorophenyl)cyclopropyl)carbamoyl)-2-(6-oxo-5,7-diazaspiro[2.5]octan-5-yl)-2,3-dihydro-1H-inden-5-yl)amino)-2-oxoethyl)-4-methyl-1,2,5-oxadiazole-3-carboxamide] are 7.11 and 7.05.
On the same counts, the results for `CNC(=O)C1(N2CC(C)(Cc3ccc(OC)cc3)CNC2=O)Cc2ccc(NC(=O)[C@@H](NC(=O)c3ccnn3C)C3CCCCC3)cc2C1` (stereo partly drawn) [Example 100, N-((1S)-1-cyclohexyl-2-((2-(5-(4-methoxybenzyl)-5-methyl-2-oxotetrahydropyrimidin-1(2H)-yl)-2-(methylcarbamoyl)-2,3-dihydro-1H-inden-5-yl)amino)-2-oxoethyl)-1-methyl-1H-pyrazole-5-carboxamide] are 6.05 and 5.59.
`CNC(=O)C1(N2C[C@@H](C(C)C)NC2=O)Cc2ccc(NC(=O)[C@@H](NC(=O)c3ccnn3C3CC3)C3CCCCC3)cc2C1` (stereo partly drawn) [Example 129, N-((1S)-1-cyclohexyl-2-((2-((R)-4-isopropyl-2-oxoimidazolidin-1-yl)-2-(methylcarbamoyl)-2,3-dihydro-1H-inden-5-yl)amino)-2-oxoethyl)-1-cyclopropyl-1H-pyrazole-5-carboxamide]: the pIC50 in assay [1] was 7.36; in assay [2], 6.92.
Take `Cc1nonc1C(=O)N[C@H](C(=O)Nc1ccc2c(c1)CC(C(=O)Nc1ccccc1C(F)F)(N1C[C@@H](C(C)C)NC1=O)C2)C(C1CC1)C1CC1` (stereo partly drawn) [Example 268, N-((2S)-1,1-dicyclopropyl-3-((2-((2-(difluoromethyl)phenyl)carbamoyl)-2-((R)-4-isopropyl-2-oxoimidazolidin-1-yl)-2,3-dihydro-1H-inden-5-yl)amino)-3-oxopropan-2-yl)-4-methyl-1,2,5-oxadiazole-3-carboxamide]: the pIC50 in assay [1] is 7.06; in assay [2] it was 6.61.
As for `Cc1nonc1C(=O)NC(C(=O)Nc1ccc2c(c1)CC(N1C[C@@H](C(F)(F)F)NC1=O)C2)C1Cc2ccc(Cl)cc2C2(CC2)C1` (stereo partly drawn) [Example 227, N-(1-(7′-chloro-3′,4′-dihydro-2′H-spiro[cyclopropane-1,1′-naphthalen]-3′-yl)-2-oxo-2-((2-((S)-2-oxo-4-(trifluoromethyl)imidazolidin-1-yl)-2,3-dihydro-1H-inden-5-yl)amino)ethyl)-4-methyl-1,2,5-oxadiazole-3-carboxamide], the results for the pIC50 in assay [1] and in assay [2] were 6.95 and 6.78, respectively.
On the same counts, the results for `CNC(=O)C1(N2C[C@@H](Cc3ccc(F)cc3)NC2=O)Cc2ccc(NC(=O)[C@@H](NC(=O)c3ccnn3C)C3CCCCC3)cc2C1` (stereo partly drawn) [Example 76, N-((1S)-1-cyclohexyl-2-((2-((R)-4-(4-fluorobenzyl)-2-oxoimidazolidin-1-yl)-2-(methylcarbamoyl)-2,3-dihydro-1H-inden-5-yl)amino)-2-oxoethyl)-1-methyl-1H-pyrazole-5-carboxamide] are 7.05 and 6.13.
With `CC(C)[C@@H]1CN(C2(C(=O)Nc3ccccc3)Cc3ccc(NC(=O)[C@@H](NC(=O)c4ccnn4C(C)C)C(C4CC4)C4CC4)cc3C2)C(=O)N1` (stereo partly drawn) [Example 235, N-((2S)-1,1-dicyclopropyl-3-((2-((R)-4-isopropyl-2-oxoimidazolidin-1-yl)-2-(phenylcarbamoyl)-2,3-dihydro-1H-inden-5-yl)amino)-3-oxopropan-2-yl)-1-isopropyl-1H-pyrazole-5-carboxamide], the pIC50 in assay [1] was 6.64; in assay [2] it was 6.67.

The record behind these values is patent US20250154138A1, “Small Molecule IL-17A Modulators” (BeiGene, Ltd., priority 2022, published 2025).
